Measured values taken from BindingDB's records for doi:10.1021/jm0701019 (Abbott Laboratories, 2007).

The molecules below were run against T1, RAC-alpha serine/threonine-protein kinase [139-480,S378A,S381A,T450D,S473D] (Homo sapiens, UniProt P31749, S378A/S381A/S473D/T450D) (assay: Akt Kinase Assay). Details: not given.
T1 construct: 139-480
T1 sequence (P31749 139-480 S378A/S381A/T450D/S473D): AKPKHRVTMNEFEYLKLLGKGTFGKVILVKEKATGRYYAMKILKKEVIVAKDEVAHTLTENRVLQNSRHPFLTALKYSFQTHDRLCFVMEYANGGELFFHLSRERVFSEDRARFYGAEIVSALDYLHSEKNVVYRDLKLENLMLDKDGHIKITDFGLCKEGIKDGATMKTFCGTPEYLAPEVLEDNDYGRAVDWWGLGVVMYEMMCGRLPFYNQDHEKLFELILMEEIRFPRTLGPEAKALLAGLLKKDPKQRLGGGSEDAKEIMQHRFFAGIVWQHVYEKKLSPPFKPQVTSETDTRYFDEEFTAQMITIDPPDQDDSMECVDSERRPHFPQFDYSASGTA
Procedure: The kinase assay uses His-Akt1 and a biotinylated peptide as substrate. The biotinylated peptides were immobilized on streptavidin-coated FLASH plates. After reaction, the 33P-phosphopeptide captured on the FLASH plates was measured with a TopCount Packard Instruments […] (Packard Instruments, Boston, MA).
An IC50 of 1.3 nM was found for `Cc1n[nH]c2ccc(-c3cncc(OC[C@@H](N)Cc4ccc(Br)c(F)c4)c3)cc12` [5-{5-[(2S)-2-amino-3-(4-bromo-3-fluorophenyl)propoxy]pyridin-3-yl}-3-methyl-1H-indazole] in this work. An IC50 of 2.5 nM was found for `Cc1cc(C[C@H](N)COc2cncc(-c3ccc4[nH]nc(C)c4c3)c2)ccc1Br` [5-{5-[(2S)-2-amino-3-(4-bromo-3-methylphenyl)propoxy]pyridin-3-yl}-3-methyl-1H-indazole] in this work. An IC50 of 3.6 nM was found for `Cc1n[nH]c2ccc(-c3cncc(OC[C@@H](N)Cc4ccc(Cl)c(F)c4)c3)cc12` [5-{5-[(2S)-2-amino-3-(4-chloro-3-fluorophenyl)propoxy]pyridin-3-yl}-3-methyl-1H-indazole] in this work. An IC50 of 6 nM was found for `Cc1cc(F)ccc1C[C@H](N)COc1cncc(-c2ccc3[nH]nc(C)c3c2)c1` [5-{5-[(2S)-2-amino-3-(4-fluoro-2-methylphenyl)propoxy]pyridin-3-yl}-3-methyl-1H-indazole] in this work. An IC50 of 3.9 nM was found for `Cc1ccc(F)cc1C[C@H](N)COc1cncc(-c2ccc3[nH]nc(C)c3c2)c1` [5-{5-[(2S)-2-amino-3-(5-fluoro-2-methylphenyl)propoxy]pyridin-3-yl}-3-methyl-1H-indazole] in this work. An IC50 of 15.3 nM was found for `Cc1n[nH]c2ccc(-c3cncc(OC[C@@H](N)Cc4ccccc4OC(F)(F)F)c3)cc12` [5-{5-[(2S)-2-amino-3-[2-(trifluoromethoxy)phenyl]propoxy]pyridin-3-yl}-3-methyl-1H-indazole] in this work. An IC50 of 12.1 nM was found for `Cc1n[nH]c2ccc(-c3cncc(OC[C@@H](N)Cc4ccc(C(F)(F)F)cc4F)c3)cc12` [5-{5-[(2S)-2-amino-3-[2-fluoro-4-(trifluoromethyl)phenyl]propoxy]pyridin-3-yl}-3-methyl-1H-indazole] in this work. An IC50 of 1.2 nM was found for `Cc1n[nH]c2ccc(-c3cncc(OC[C@@H](N)Cc4cc(C(F)(F)F)ccc4F)c3)cc12` [5-{5-[(2S)-2-amino-3-[2-fluoro-5-(trifluoromethyl)phenyl]propoxy]pyridin-3-yl}-3-methyl-1H-indazole] in this work. An IC50 of 57 nM was found for `Cc1n[nH]c2ccc(-c3cncc(OC[C@@H](N)Cc4cc(C(F)(F)F)cc(C(F)(F)F)c4)c3)cc12` [5-{5-[(2S)-2-amino-3-[3,5-bis(trifluoromethyl)phenyl]propoxy]pyridin-3-yl}-3-methyl-1H-indazole] in this work. An IC50 of 47 nM was found for `Cc1n[nH]c2ccc(-c3cncc(OC[C@@H](N)Cc4cccc(OCCN)c4)c3)cc12` [5-{5-[(2S)-2-amino-3-[3-(2-aminoethoxy)phenyl]propoxy]pyridin-3-yl}-3-methyl-1H-indazole] in this work. An IC50 of 6.8 nM was found for `Cc1n[nH]c2ccc(-c3cncc(OC[C@@H](N)Cc4cccc(OCC5CCNCC5)c4)c3)cc12` [5-{5-[(2S)-2-amino-3-[3-(piperidin-4-ylmethoxy)phenyl]propoxy]pyridin-3-yl}-3-methyl-1H-indazole] in this work. An IC50 of 3.1 nM was found for `Cc1n[nH]c2ccc(-c3cncc(OC[C@@H](N)Cc4ccc(C(F)(F)F)c(F)c4)c3)cc12` [5-{5-[(2S)-2-amino-3-[3-fluoro-4-(trifluoromethyl)phenyl]propoxy]pyridin-3-yl}-3-methyl-1H-indazole] in this work. An IC50 of 1.8 nM was found for `Cc1n[nH]c2ccc(-c3cncc(OC[C@@H](N)Cc4ccc(F)c(C(F)(F)F)c4)c3)cc12` [5-{5-[(2S)-2-amino-3-[4-fluoro-3-(trifluoromethyl)phenyl]propoxy]pyridin-3-yl}-3-methyl-1H-indazole] in this work. An IC50 of 290 nM was found for `Cc1n[nH]c2ccc(-c3cncc(OC[C@@H](N)Cc4cccc(OCCC5CCNCC5)c4)c3)cc12` [5-{5-[(2S)-2-amino-3-{3-[2-(piperidin-4-yl)ethoxy]phenyl}propoxy]pyridin-3-yl}-3-methyl-1H-indazole] in this work. An IC50 of 78 nM was found for `Cc1n[nH]c2ccc(-c3cncc(OC[C@@H](N)Cc4cccc(OCC5CCN(C)CC5)c4)c3)cc12` [5-{5-[(2S)-2-amino-3-{3-[(1-methylpiperidin-4-yl)methoxy]phenyl}propoxy]pyridin-3-yl}-3-methyl-1H-indazole] in this work. An IC50 of 5 nM was found for `Cc1n[nH]c2cnc(-c3cncc(OC[C@@H](N)Cc4cccc(F)c4F)c3)cc12` [(2S)-1-(2,3-difluorophenyl)-3-{[5-(3-methyl-1H-pyrazolo[3,4-c]pyridin-5-yl)pyridin-3-yl]oxy}propan-2-amine] in this work. An IC50 of 39 nM was found for `Cc1cc(C)c(C[C@H](N)COc2cncc(-c3ccc4[nH]nc(C)c4c3)c2)c(C)c1` [(2S)-1-(2,4,6-trimethylphenyl)-3-{[5-(3-methyl-1H-indazol-5-yl)pyridin-3-yl]oxy}propan-2-amine] in this work. An IC50 of 49 nM was found for `Cc1n[nH]c2ccc(-c3cncc(OC[C@@H](N)Cc4c(F)cc(F)cc4Br)c3)cc12` [(2S)-1-(2-bromo-4,6-difluorophenyl)-3-{[5-(3-methyl-1H-indazol-5-yl)pyridin-3-yl]oxy}propan-2-amine] in this work. An IC50 of 23 nM was found for `Cc1n[nH]c2ccc(-c3cncc(OC[C@@H](N)Cc4ccccc4Br)c3)cc12` [(2S)-1-(2-bromophenyl)-3-{[5-(3-methyl-1H-indazol-5-yl)pyridin-3-yl]oxy}propan-2-amine] in this work. An IC50 of 1.8 nM was found for `Cc1n[nH]c2ccc(-c3cncc(OC[C@@H](N)Cc4ccc(Cl)c(Cl)c4)c3)cc12` [(2S)-1-(3,4-dichlorophenyl)-3-{[5-(3-methyl-1H-indazol-5-yl)pyridin-3-yl]oxy}propan-2-amine] in this work. An IC50 of 20.7 nM was found for `Cc1n[nH]c2ccc(-c3cncc(OC[C@@H](N)Cc4cc(Cl)cc(Cl)c4)c3)cc12` [(2S)-1-(3,5-dichlorophenyl)-3-{[5-(3-methyl-1H-indazol-5-yl)pyridin-3-yl]oxy}propan-2-amine] in this work. An IC50 of 2.1 nM was found for `Cc1n[nH]c2ccc(-c3cncc(OC[C@@H](N)Cc4cccc(Br)c4)c3)cc12` [(2S)-1-(3-bromophenyl)-3-{[5-(3-methyl-1H-indazol-5-yl)pyridin-3-yl]oxy}propan-2-amine] in this work. An IC50 of 3.1 nM was found for `Cc1n[nH]c2ccc(-c3cncc(OC[C@@H](N)Cc4ccc(F)c(Cl)c4)c3)cc12` [(2S)-1-(3-chloro-4-fluorophenyl)-3-{[5-(3-methyl-1H-indazol-5-yl)pyridin-3-yl]oxy}propan-2-amine] in this work. An IC50 of 5.9 nM was found for `Cc1n[nH]c2ccc(-c3cncc(OC[C@@H](N)Cc4cccc(Cl)c4)c3)cc12` [(2S)-1-(3-chlorophenyl)-3-{[5-(3-methyl-1H-indazol-5-yl)pyridin-3-yl]oxy}propan-2-amine] in this work. An IC50 of 11 nM was found for `Cc1cc(C[C@H](N)COc2cncc(-c3ccc4[nH]nc(C)c4c3)c2)ccc1F` [(2S)-1-(3-methyl-4-fluorophenyl)-3-{[5-(3-methyl-1H-indazol-5-yl)pyridin-3-yl]oxy}propan-2-amine] in this work. An IC50 of 11 nM was found for `Cc1n[nH]c2ccc(-c3cncc(OC[C@@H](N)Cc4ccc(Cl)cc4)c3)cc12` [(2S)-1-(4-chlorophenyl)-3-{[5-(3-methyl-1H-indazol-5-yl)pyridin-3-yl]oxy}propan-2-amine] in this work. An IC50 of 7.7 nM was found for `COc1ccc(F)cc1C[C@H](N)COc1cncc(-c2ccc3[nH]nc(C)c3c2)c1` [(2S)-1-(5-fluoro-2-methoxyphenyl)-3-{[5-(3-methyl-1H-indazol-5-yl)pyridin-3-yl]oxy}propan-2-amine] in this work. An IC50 of 13.3 nM was found for `Cc1n[nH]c2ccc(-c3cncc(OC[C@@H](N)Cc4cc(F)cc(C(F)(F)F)c4)c3)cc12` [(2S)-1-[5-fluoro-3-(trifluoromethyl)phenyl]-3-{[5-(3-methyl-1H-indazol-5-yl)pyridin-3-yl]oxy}propan-2-amine] in this work. An IC50 of 7.2 nM was found for `N[C@H](COc1cncc(-c2cc3cn[nH]c3cn2)c1)Cc1cccc(C(F)(F)F)c1` [(2S)-1-{[5-(1H-pyrazolo[3,4-c]pyridin-5-yl)pyridin-3-yl]oxy}-3-[3-(trifluoromethyl)phenyl]propan-2-amine] in this work. An IC50 of 2.9 nM was found for `N[C@H](COc1cncc(-c2cc3c(Cl)n[nH]c3cn2)c1)Cc1cccc(C(F)(F)F)c1` [(2S)-1-{[5-(3-chloro-1H-pyrazolo[3,4-c]pyridin-5-yl)pyridin-3-yl]oxy}-3-[3-(trifluoromethyl)phenyl]propan-2-amine] in this work. An IC50 of 1.2 nM was found for `Cc1n[nH]c2ccc(-c3cncc(OC[C@@H](N)Cc4cccc(C(F)(F)F)c4)c3)cc12` [(2S)-1-{[5-(3-methyl-1H-indazol-5-yl)pyridin-3-yl]oxy}-3-[3-(trifluoromethyl)phenyl]propan-2-amine] in this work. An IC50 of 20.3 nM was found for `Cc1n[nH]c2ccc(-c3cncc(OC[C@@H](N)Cc4ccc(OC(F)(F)F)cc4)c3)cc12` [(2S)-1-{[5-(3-methyl-1H-indazol-5-yl)pyridin-3-yl]oxy}-3-[4-(trifluoromethoxy)phenyl]propan-2-amine] in this work. An IC50 of 18 nM was found for `Cc1n[nH]c2ccc(-c3cncc(OC[C@@H](N)Cc4ccc(C(F)(F)F)cc4)c3)cc12` [(2S)-1-{[5-(3-methyl-1H-indazol-5-yl)pyridin-3-yl]oxy}-3-[4-(trifluoromethyl)phenyl]propan-2-amine] in this work.

Same assay, conditions: pH 7.5; 22 °C
An IC50 of 31 nM was found for `Cc1n[nH]c2ccc(-c3cncc(OC[C@@H](N)Cc4c(F)cc(F)cc4F)c3)cc12` [(2S)-1-(2,4,6-trifluorophenyl)-3-{[5-(3-methyl-1H-indazol-5-yl)pyridin-3-yl]oxy}propan-2-amine] in this work. An IC50 of 21 nM was found for `Cc1n[nH]c2ccc(-c3cncc(OC[C@@H](N)Cc4ccc(F)cc4F)c3)cc12` [(2S)-1-(2,4-difluorophenyl)-3-{[5-(3-methyl-1H-indazol-5-yl)pyridin-3-yl]oxy}propan-2-amine] in this work. An IC50 of 1.4 nM was found for `N[C@H](COc1cncc(-c2ccc3c(c2)/C(=C\c2ccco2)C(=O)N3)c1)Cc1ccccc1` [(3E)-5-{5-[(2S)-2-amino-3-phenylpropoxy]pyridin-3-yl}-3-(furan-2-ylmethylidene)-2,3-dihydro-1H-indol-2-one] in this work. An IC50 of 16 nM was found for `N[C@H](COc1cncc(-c2ccc3c(c2)/C(=C/c2ccc[nH]2)C(=O)N3)c1)Cc1ccccc1` [(3Z)-5-{5-[(2S)-2-amino-3-phenylpropoxy]pyridin-3-yl}-3-(1H-pyrrol-2-ylmethylidene)-2,3-dihydro-1H-indol-2-one] in this work.
